Experiments:
CD8+ = experiment: RT-qPCR of CD8+ expression in anterior kidney of fish fed supplemented diets; assay type: in vivo, rainbow trout; details: diet 15 days
Protocol: (§1) We compared several aquaculture diets suitable for use in commercial aquaculture. The standard diet was […] commercially available from Salmones […]., Los Angeles, Chile. […] Each diet was administered to each of three (3) cages for 15 days. […] We extracted total RNA from each sample, and then quantified the expression of IL-12 and CD8^+ using real-time quantitative PCR, according to the standardized protocols of the Aquatic Organisms Biotechnology Lab of the Universidad Austral de Chile.

[1] = system: Piscirickettsia salmonis strain type LF-89; assay type: cell-based
IL-12 = experiment: RT-qPCR of IL-12 expression in anterior kidney of fish fed supplemented diets; assay type: in vivo, rainbow trout; details: diet 15 days; NC 0.5 kg/ton, AP 1 kg/ton of feed
Protocol: as §1

SMILES	CD8+ expression in anterior kidney compared to control group (CD8+; NC 0.5 kg/ton, AP 1 kg/ton of feed)	stimulation of the immune activity markers compared to control (CD8+; in vivo pilot test)	inhibitory effect on bacterial growth ([1]; at the analyzed concentrations (0.98 to 500))	IL-12 expression in anterior kidney compared to control group (IL-12)	mean inhibition in bacterial growth ([1]; 64, 32 and 16 μg/mL) [fold]
C=C1CC[C@@H]2[C@](C)(CO)[C@H](O)CC[C@@]2(C)[C@@H]1C/C=C1/C(=O)OC[C@H]1O [AP, andrographolide]	increase the expression of CD8+	2.0	no significant differences in the inhibitory effect	depress the expression of IL-12	
CS(=O)(=O)c1ccc([C@@H](O)[C@@H](CF)NC(=O)C(Cl)Cl)cc1 [florfenicol]					5
